According to patent US9702875B2 (priority 2006, dated 2017):
Where a SMILES comes first, the peptide text is derived from it. The star is where a group is joined. Cbz = O=C(OCc1ccccc1)*

Columns and labels:
[1] = test system: cell lines without ERCC1-202 isoform expression (A549 ERCC1-deficient); experiment: Cell cycle / DNA content by flow cytometry after cisplatin; format: cell-based, human; conditions: 30 and 300 nM for 48 hours
Experimental: To study effect of cisplatin on cell cycle arrest, cells were treated with 30 nM or 300 nM of cisplatin for 48 h. For high DNA content analysis, cells were blocked in G2/M cell cycle phase with Karyomax colcemid solution (Gibco-Invitrogen) at 0.1 μg/ml for 6 h.
DNA content was determined in ethanol-fixed cells, stained with propidium iodide and analyzed using a Becton Dickinson FACScalibur flow cytometer and the CellQuest Pro software.

[2] = test system: ERCC1 protein isoforms; experiment: Western blot of ERCC1 protein isoforms after proteasome inhibition; format: cell-based, human; conditions: 2 μM for 24 h
Experimental: Proteins were extracted by lysis in RIPA buffer (50 mM Tris, 150 mM NaCl, 5 mM EDTA, 0.5% sodium deoxycholic acid, 0.5% NP-40, 0.1% SDS) supplemented with a protease inhibitor cocktail (Complete; Roche Molecular). For nucleus and cytoplasm protein, a first extraction and separation was done with a buffer containing 10 mM HEPES, 10 mM KCl, 1 mM DTT, 1 mM PMSF and protease inhibitor cocktail supplemented with 0.3% NP40. The nucleus fraction was next resuspended in a buffer containing 20 mM HEPES and 400 mM NaCl. Protein were then separated by SDS-PAGE and transferred to nitrocellulose membranes by the iBlot® 7-Minute Blotting System (Invitrogen). Blots were incubated with primary and secondary peroxidase-conjugated antibodies and chemiluminescent detection was done using the Dura HRP Substrate (Thermo scientific).
For proteasome inhibition, cells were treated with MG132 (Merck) at 2 μM for 24 h.

Compound	cells blocked in G2/M cell cycle phase [1]	ERCC1 isoform protein expression level after proteasome inhibition [2]
N.N.[Cl][Pt][Cl] [cisplatin]	60-80%	–
CC(C)C[C@@H](C=O)NC(=O)[C@H](CC(C)C)NC(=O)[C@H](CC(C)C)NC(=O)OCc1ccccc1 [MG132] (Cbz-Leu-Leu-Leu-aldehyde)	–	increase in ERCC1-201, -203 and -204 expression level
